Source: ChEMBL document CHEMBL5532657, “Serendipitous discovery of Class I HDAC inhibitors from rational design of molecular glue degraders targeting HDAC” (Eur J Med Chem, 2024)
The source made the active and inactive calls.

Columns and labels:
[1] = target: T1, Protein deacetylase HDAC6 (Homo sapiens) (UniProt Q9UBN7); test: Induction of HDAC6 degradation in human RS4-11 cells at 0.5 to 10 uM incubated for 12 hrs by Western blotting analysis; type: cell-based; details: dose 0.5-10 µM
T1 sequence (whole entry): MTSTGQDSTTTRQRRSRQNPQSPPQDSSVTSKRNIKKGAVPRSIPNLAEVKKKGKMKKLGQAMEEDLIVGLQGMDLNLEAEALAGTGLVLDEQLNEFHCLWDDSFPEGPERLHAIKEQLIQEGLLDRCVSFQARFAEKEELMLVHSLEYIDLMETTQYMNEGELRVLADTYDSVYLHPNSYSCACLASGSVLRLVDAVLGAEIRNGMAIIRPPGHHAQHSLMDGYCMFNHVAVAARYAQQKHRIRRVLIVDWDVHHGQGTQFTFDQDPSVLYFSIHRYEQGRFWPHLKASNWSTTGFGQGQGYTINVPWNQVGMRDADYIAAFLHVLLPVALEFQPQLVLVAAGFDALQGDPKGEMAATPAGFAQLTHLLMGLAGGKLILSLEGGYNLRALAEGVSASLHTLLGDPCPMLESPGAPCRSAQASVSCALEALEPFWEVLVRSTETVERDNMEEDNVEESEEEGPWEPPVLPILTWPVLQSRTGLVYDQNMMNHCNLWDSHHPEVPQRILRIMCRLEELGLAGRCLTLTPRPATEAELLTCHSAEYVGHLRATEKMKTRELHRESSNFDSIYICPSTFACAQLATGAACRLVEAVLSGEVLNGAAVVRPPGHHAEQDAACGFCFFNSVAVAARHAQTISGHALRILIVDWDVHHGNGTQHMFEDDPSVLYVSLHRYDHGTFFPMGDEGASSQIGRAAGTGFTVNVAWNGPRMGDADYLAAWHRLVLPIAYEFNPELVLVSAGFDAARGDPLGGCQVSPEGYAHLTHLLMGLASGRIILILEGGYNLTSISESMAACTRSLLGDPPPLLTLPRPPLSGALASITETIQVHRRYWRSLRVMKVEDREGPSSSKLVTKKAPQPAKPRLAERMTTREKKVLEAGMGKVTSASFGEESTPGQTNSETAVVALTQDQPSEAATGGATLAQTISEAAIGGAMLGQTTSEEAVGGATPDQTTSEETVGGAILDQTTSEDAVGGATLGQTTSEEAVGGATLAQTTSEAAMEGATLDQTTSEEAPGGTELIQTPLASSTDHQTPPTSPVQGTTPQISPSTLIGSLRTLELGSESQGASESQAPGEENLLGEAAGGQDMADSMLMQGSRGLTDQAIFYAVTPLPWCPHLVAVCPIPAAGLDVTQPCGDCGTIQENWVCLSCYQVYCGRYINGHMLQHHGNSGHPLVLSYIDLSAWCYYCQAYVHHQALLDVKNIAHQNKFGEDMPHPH

A549 = test: Antiproliferative activity against human A549 cells assessed as cell growth inhibition at 5 uM incubated for 48 hrs by CCK-8 assay; type: functional, cell-based
HCT-116 = test: Antiproliferative activity against human HCT-116 cells assessed as cell growth inhibition at 5 uM incubated for 48 hrs by CCK-8 assay; type: functional, cell-based
Histone deacetylase 1 = Histone deacetylase 1 (Homo sapiens, UniProt Q13547); test: Induction of HDAC1 degradation in human RS4-11 cells at 0.5 to 10 uM incubated for 12 hrs by Western blotting analysis; type: cell-based; details: dose 0.5-10 µM
HeLa = test: Antiproliferative activity against human HeLa cells assessed as cell growth inhibition at 5 uM incubated for 48 hrs by CCK-8 assay; type: functional, cell-based

Measured: Activity

Sequence of Histone deacetylase 1 (Q13547 whole entry): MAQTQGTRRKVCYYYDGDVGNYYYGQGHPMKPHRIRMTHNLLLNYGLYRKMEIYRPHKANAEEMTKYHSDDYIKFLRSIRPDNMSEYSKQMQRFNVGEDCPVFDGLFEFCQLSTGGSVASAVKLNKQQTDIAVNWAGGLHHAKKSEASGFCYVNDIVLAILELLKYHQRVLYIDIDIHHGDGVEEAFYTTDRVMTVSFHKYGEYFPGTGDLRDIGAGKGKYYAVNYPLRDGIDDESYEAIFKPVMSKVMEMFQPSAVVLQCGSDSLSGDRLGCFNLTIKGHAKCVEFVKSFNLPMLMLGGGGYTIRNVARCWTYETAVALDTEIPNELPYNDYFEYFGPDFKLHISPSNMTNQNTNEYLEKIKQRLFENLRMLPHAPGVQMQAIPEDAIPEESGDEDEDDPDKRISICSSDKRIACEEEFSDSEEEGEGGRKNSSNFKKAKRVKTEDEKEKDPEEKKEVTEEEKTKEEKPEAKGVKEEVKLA

O=C1CCC(N2C(=O)c3cccc(NCc4ccc(C(=O)NO)cc4)c3C2=O)C(=O)N1 (stereo not given)
inactive: all assays above

Nc1cccc2c1C(=O)N(C1CCC(=O)NC1=O)C2=O (stereo not given)
inactive: all assays above

Nc1ccccc1NC(=O)CCCCCCCNc1cccc2c1C(=O)N(C1CCC(=O)NC1=O)C2=O (stereo not given)
inactive: all assays above

O=C(CCCCCCCNc1cccc2c1C(=O)N(C1CCC(=O)NC1=O)C2=O)NO (stereo not given)
inactive: all assays above

Nc1cc(F)ccc1NC(=O)CCCCCCCNc1cccc2c1C(=O)N(C1CCC(=O)NC1=O)C2=O (stereo not given)
inactive: all assays above

Nc1ccccc1NC(=O)CCCCCCNc1cccc2c1C(=O)N(C1CCC(=O)NC1=O)C2=O (stereo not given)
inactive: all assays above

O=C1CCC(N2C(=O)c3cccc(NCCOCCOCCOCCn4cc(C(=O)NO)nn4)c3C2=O)C(=O)N1 (stereo not given)
inactive: all assays above

Nc1cc(F)ccc1NC(=O)CCCCCCNc1cccc2c1C(=O)N(C1CCC(=O)NC1=O)C2=O (stereo not given)
inactive: all assays above

O=C(CCCCCNc1cccc2c1C(=O)N(C1CCC(=O)NC1=O)C2=O)NCCS (stereo not given)
inactive: all assays above

Nc1ccccc1NC(=O)c1cn(CCOCCNc2cccc3c2C(=O)N(C2CCC(=O)NC2=O)C3=O)nn1 (stereo not given)
inactive: all assays above

Nc1cc(F)ccc1NC(=O)c1cn(CCOCCOCCNc2cccc3c2C(=O)N(C2CCC(=O)NC2=O)C3=O)nn1 (stereo not given)
inactive: all assays above

Nc1ccccc1NC(=O)c1cn(CCOCCOCCNc2cccc3c2C(=O)N(C2CCC(=O)NC2=O)C3=O)nn1 (stereo not given)
inactive: all assays above

O=C1CCC(N2C(=O)c3cccc(NCCOCCOCCn4cc(C(=O)NCCS)nn4)c3C2=O)C(=O)N1 (stereo not given)
inactive: all assays above

Nc1cc(F)ccc1NC(=O)CCCNc1cccc2c1C(=O)N(C1CCC(=O)NC1=O)C2=O (stereo not given)
inactive: all assays above

O=C1CCC(N2C(=O)c3cccc(NCCOCCn4cc(C(=O)NCCS)nn4)c3C2=O)C(=O)N1 (stereo not given)
inactive: all assays above

Nc1ccccc1NC(=O)CCCCNc1cccc2c1C(=O)N(C1CCC(=O)NC1=O)C2=O (stereo not given)
inactive: all assays above

O=C(CCCCCNc1cccc2c1C(=O)N(C1CCC(=O)NC1=O)C2=O)NO (stereo not given)
inactive: all assays above

O=C1CCC(N2C(=O)c3cccc(NCCOCCOCCOCCn4cc(C(=O)NCCS)nn4)c3C2=O)C(=O)N1 (stereo not given)
inactive: all assays above

CCCNNC(=O)c1ccc(CNc2cccc3c2C(=O)N(C2CCC(=O)NC2=O)C3=O)cc1 (stereo not given)
inactive: all assays above

O=C(CCCCCCCNc1cccc2c1C(=O)N(C1CCC(=O)NC1=O)C2=O)NCCS (stereo not given)
inactive: all assays above

Nc1cc(F)ccc1NC(=O)c1cn(CCOCCNc2cccc3c2C(=O)N(C2CCC(=O)NC2=O)C3=O)nn1 (stereo not given)
inactive: all assays above

CCNNC(=O)c1ccc(CNc2cccc3c2C(=O)N(C2CCC(=O)NC2=O)C3=O)cc1 (stereo not given)
inactive: all assays above

Nc1cc(F)ccc1NC(=O)CCCCCNc1cccc2c1C(=O)N(C1CCC(=O)NC1=O)C2=O (stereo not given)
inactive: all assays above

Nc1ccccc1NC(=O)CCCNc1cccc2c1C(=O)N(C1CCC(=O)NC1=O)C2=O (stereo not given)
inactive: all assays above

Nc1cc(F)ccc1NC(=O)c1cn(CCOCCOCCOCCNc2cccc3c2C(=O)N(C2CCC(=O)NC2=O)C3=O)nn1 (stereo not given)
inactive: all assays above

O=C(CCCNc1cccc2c1C(=O)N(C1CCC(=O)NC1=O)C2=O)NO (stereo not given)
inactive: all assays above

O=C1CCC(N2C(=O)c3cccc(NCCOCCOCCn4cc(C(=O)NO)nn4)c3C2=O)C(=O)N1 (stereo not given)
inactive: all assays above

CCNNC(=O)CCCCCCNc1cccc2c1C(=O)N(C1CCC(=O)NC1=O)C2=O (stereo not given)
inactive: all assays above

CCCNNC(=O)CCCCCCNc1cccc2c1C(=O)N(C1CCC(=O)NC1=O)C2=O (stereo not given)
inactive: all assays above

O=C(CCCCNc1cccc2c1C(=O)N(C1CCC(=O)NC1=O)C2=O)NO (stereo not given)
inactive: all assays above

O=C(CCCNc1cccc2c1C(=O)N(C1CCC(=O)NC1=O)C2=O)NCCS (stereo not given)
inactive: all assays above
